pIC50: −log10 of the molar value.
Legend:
[1] = biological target: Non-receptor tyrosine-protein kinase TYK2 (Homo sapiens, UniProt P29597); assay: (§1) In Vitro Kinase Enzyme Assay: In vitro kinase enzyme assay using Jak3, Jak2, Jak1, and Tyk2.
[2] = biological target: Tyrosine-protein kinase JAK1 (Homo sapiens, UniProt P23458); assay: as §1
[3] = biological target: Tyrosine-protein kinase JAK2 (Homo sapiens, UniProt O60674); assay: as §1
[4] = biological target: T1, Tyrosine-protein kinase JAK3 (Homo sapiens, UniProt P52333); assay: as §1
T1 sequence (P52333 whole entry): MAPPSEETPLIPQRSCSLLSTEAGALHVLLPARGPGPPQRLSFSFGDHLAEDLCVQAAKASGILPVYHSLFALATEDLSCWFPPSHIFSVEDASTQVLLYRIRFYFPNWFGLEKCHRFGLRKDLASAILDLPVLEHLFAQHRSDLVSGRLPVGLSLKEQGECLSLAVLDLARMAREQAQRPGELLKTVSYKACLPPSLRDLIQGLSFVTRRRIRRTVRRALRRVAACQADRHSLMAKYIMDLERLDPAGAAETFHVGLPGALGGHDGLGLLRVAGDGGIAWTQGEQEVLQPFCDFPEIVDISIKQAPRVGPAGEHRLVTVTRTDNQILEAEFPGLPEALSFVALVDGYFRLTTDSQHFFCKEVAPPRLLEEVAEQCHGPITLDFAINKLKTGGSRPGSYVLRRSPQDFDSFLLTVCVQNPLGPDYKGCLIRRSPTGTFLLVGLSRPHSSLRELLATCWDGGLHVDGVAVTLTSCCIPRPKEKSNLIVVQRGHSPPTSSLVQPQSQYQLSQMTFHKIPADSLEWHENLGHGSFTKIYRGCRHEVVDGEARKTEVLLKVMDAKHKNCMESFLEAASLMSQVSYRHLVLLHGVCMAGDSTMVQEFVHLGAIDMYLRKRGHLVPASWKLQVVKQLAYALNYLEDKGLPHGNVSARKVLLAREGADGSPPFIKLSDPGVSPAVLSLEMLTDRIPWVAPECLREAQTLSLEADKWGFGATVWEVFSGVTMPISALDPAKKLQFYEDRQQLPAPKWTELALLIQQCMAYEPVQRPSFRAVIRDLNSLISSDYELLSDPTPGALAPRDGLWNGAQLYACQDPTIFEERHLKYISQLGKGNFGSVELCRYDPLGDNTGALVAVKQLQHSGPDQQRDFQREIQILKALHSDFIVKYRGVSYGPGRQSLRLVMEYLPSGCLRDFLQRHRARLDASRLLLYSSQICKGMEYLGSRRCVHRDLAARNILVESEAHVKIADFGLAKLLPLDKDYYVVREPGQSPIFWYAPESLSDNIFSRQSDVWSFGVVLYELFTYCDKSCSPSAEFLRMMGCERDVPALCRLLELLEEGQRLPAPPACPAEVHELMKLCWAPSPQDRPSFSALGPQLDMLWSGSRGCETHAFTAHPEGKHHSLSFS

Sequence of Non-receptor tyrosine-protein kinase TYK2 (P29597 whole entry): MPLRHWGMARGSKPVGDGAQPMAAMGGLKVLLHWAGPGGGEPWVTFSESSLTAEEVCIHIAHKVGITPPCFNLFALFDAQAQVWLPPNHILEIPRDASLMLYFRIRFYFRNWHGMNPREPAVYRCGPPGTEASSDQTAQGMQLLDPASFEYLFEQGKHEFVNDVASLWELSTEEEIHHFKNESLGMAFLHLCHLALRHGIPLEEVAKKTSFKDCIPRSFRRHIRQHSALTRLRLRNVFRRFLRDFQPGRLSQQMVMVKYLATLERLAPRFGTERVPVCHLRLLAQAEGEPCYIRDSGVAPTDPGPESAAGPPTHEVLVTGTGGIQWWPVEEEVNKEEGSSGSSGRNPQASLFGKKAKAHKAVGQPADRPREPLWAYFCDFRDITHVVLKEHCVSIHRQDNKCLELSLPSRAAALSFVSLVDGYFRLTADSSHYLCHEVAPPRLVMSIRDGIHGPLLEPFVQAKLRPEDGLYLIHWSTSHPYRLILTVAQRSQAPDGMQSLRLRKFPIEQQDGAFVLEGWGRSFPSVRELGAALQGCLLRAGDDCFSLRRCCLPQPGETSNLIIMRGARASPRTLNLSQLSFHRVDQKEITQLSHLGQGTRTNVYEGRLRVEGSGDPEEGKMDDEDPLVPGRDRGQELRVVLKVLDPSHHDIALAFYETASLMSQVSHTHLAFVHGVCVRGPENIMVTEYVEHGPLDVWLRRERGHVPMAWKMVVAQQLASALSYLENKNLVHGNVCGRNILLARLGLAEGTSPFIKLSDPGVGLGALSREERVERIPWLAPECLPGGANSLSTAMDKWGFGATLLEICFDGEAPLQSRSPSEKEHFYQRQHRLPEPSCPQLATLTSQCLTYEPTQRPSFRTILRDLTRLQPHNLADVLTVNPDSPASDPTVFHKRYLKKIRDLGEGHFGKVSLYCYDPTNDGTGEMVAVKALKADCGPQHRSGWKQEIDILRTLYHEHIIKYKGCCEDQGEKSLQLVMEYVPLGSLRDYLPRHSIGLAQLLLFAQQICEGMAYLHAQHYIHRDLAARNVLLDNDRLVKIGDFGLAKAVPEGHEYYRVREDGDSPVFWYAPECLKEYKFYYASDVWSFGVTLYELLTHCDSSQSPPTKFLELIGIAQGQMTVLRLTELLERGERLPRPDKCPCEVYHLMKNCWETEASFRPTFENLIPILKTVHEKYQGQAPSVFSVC
Sequence of Tyrosine-protein kinase JAK2 (O60674 whole entry): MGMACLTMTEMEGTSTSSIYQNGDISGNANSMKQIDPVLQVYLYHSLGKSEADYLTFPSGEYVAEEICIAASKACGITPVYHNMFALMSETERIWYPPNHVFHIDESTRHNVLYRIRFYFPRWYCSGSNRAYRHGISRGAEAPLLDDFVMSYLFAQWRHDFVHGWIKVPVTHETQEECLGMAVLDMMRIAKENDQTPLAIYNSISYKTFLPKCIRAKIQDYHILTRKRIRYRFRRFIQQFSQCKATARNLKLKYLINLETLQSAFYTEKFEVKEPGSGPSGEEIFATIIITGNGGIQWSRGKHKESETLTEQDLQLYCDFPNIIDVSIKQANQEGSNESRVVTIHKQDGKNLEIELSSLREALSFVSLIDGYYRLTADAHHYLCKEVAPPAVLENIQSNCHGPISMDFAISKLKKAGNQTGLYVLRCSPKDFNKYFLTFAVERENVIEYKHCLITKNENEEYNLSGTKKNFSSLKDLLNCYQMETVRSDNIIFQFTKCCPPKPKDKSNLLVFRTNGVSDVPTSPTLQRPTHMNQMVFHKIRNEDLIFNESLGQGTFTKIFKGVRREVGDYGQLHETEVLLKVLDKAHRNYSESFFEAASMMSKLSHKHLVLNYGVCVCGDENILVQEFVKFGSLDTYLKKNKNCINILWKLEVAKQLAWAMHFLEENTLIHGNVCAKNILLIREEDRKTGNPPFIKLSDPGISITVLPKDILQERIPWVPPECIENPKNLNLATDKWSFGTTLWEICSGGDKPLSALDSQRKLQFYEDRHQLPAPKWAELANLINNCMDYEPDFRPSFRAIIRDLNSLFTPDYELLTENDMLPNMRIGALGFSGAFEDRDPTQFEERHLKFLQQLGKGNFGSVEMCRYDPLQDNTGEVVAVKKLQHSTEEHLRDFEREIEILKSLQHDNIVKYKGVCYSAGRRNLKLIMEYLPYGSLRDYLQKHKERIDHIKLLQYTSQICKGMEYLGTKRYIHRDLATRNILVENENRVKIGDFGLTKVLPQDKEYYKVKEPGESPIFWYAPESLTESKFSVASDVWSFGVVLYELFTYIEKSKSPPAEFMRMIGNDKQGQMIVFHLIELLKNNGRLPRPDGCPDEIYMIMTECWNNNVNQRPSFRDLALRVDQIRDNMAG
Sequence of Tyrosine-protein kinase JAK1 (P23458 whole entry): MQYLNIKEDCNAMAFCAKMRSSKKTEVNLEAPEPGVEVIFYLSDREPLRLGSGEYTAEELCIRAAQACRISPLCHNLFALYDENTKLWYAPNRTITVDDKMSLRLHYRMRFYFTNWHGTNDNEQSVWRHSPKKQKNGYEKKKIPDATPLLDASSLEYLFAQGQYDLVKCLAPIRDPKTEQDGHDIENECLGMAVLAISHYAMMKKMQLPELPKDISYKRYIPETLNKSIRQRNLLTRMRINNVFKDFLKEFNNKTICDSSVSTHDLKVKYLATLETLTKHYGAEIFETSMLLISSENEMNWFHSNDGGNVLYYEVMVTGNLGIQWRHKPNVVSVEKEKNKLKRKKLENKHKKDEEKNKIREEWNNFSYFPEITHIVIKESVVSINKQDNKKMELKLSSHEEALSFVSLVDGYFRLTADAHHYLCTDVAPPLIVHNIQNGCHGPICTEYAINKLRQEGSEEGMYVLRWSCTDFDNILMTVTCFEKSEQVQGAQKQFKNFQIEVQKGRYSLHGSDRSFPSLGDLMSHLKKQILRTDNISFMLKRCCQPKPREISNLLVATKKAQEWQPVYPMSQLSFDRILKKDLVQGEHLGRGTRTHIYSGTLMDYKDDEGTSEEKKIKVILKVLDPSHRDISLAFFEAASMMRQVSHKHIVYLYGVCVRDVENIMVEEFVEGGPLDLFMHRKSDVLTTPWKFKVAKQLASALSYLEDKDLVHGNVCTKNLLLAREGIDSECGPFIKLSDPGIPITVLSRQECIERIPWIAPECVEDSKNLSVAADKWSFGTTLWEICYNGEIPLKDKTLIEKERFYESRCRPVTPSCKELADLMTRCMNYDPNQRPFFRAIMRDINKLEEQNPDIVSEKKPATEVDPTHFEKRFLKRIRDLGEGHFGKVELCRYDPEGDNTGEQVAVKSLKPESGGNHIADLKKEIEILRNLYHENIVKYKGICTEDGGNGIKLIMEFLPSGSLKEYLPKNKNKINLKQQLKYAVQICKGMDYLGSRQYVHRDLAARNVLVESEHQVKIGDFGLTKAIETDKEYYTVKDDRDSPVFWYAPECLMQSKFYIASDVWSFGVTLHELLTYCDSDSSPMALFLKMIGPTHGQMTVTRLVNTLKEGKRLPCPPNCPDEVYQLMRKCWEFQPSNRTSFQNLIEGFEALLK

pIC50 [1]: < 5.00
pIC50 [2]: < 5.00
pIC50 [3]: < 5.00
pIC50 [4]: 9.52
Structure (SMILES): O=C(CBr)Nc1cccc(-c2cnc3ccccc3n2)c1

— ChEMBL document CHEMBL3638666, “Selective kinase inhibitors” (2013)
